The test has as its target GABAA receptor. Briefly: Steroid inhibition of [35S]-TBPS binding, rat brain cortical membranes. The note with it: 3 nM [35S]-TBPS, in the presence of 5 mM GABA. The protocol:
[^35S]-t-Butylbicyclophosphorothionate (TBPS) binding assays using rat brain cortical membranes in the presence of 5 mM GABA has been described (Gee et al, J. Pharmacol. Exp. Ther. 1987, 241, 346-353; Hawkinson et al, Mol. Pharmacol. 1994, 46, 977-985; Lewin, A. H et al., Mol. Pharmacol. 1989, 35, 189-194).
Briefly, cortices are rapidly removed following decapitation of carbon dioxide-anesthetized Sprague-Dawley rats (200-250 g). The cortices are homogenized in 10 volumes of ice-cold 0.32 M sucrose using a glass/teflon homogenizer and centrifuged at 1500×g for 10 min at 4° C. The resultant supernatants are centrifuged at 10,000×g for 20 min at 4° C. to obtain the P2 pellets. The P2 pellets are resuspended in 200 mM NaCl/50 mM Na—K phosphate pH 7.4 buffer and centrifuged at 10,000×g for 10 min at 4° C. This washing procedure is repeated twice and the pellets are resuspended in 10 volumes of buffer. Aliquots ([…]) of the membrane suspensions are incubated with 3 nM [^35S]-TBPS and […] aliquots of test drug dissolved in dimethyl sulfoxide (DMSO) (final 0.5%) in the presence of 5 mM GABA. The incubation is brought to a final volume of 1.0 mL with buffer. Nonspecific binding is determined in the presence of […] and ranged from 15 to 25%. Following a 90 min incubation at room temp, the assays are terminated by filtration through glass fiber filters (Schleicher and Schuell No. 32) using a cell harvester (Brandel) and rinsed three times with ice-cold buffer. Filter bound radioactivity is measured by liquid scintillation spectrometry. Non-linear curve fitting of the overall data for each drug averaged for each concentration is done using Prism (GraphPad). […] The concentration of test compound producing 50% inhibition (IC50) of specific binding and the maximal extent of inhibition (Imax) are determined for the individual experiments with the same model used for the overall data and then the means±SEM.s of the individual experiments are calculated.
Various compounds are or can be screened to determine their potential as modulators of [^35S]-TBPS binding in vitro. These assays are or can be performed in accordance with the above
In the case of `C[C@@H]1C[C@H]([C@@](C)(O)Cn2cc(C#N)cn2)[C@@]2(C)CC[C@H]3[C@@H](CC[C@@H]4C[C@](C)(O)CC[C@@H]43)[C@H]12` [Compound 49, 1-((R)-2-hydroxy-2-((3R,5R,8R,9R,10S,13S,14S,15R,17S)-3-hydroxy-3,13,15-trimethylhexadecahydro-1H-cyclopenta[a]phenanthren-17-yl)propyl)-1H-pyrazole-4-carbonitrile], the IC50 was below 100 nM.

Consider `CC(C)(Cn1cc(C#N)cn1)[C@H]1CC[C@H]2[C@@H]3CC[C@@H]4C[C@](C)(O)CC[C@@H]4[C@H]3CC[C@]12C` [Compound 41, 1-(2-((3R,5R,8R,9R,10S,13S,14S,17S)-3-hydroxy-3,13-dimethylhexadecahydro-1H-cyclopenta[a]phenanthren-17-yl)-2-methylpropyl)-1H-pyrazole-4-carbonitrile], for which the IC50 was below 100 nM. In the case of `COC[C@@]1(O)CC[C@@]2(C)[C@H](CC[C@@H]3[C@@H]2CC[C@@]2(C)[C@H]3CC[C@@H]2[C@@](C)(Cn2cc(C#N)cn2)OC)C1` [Compound 54, 1-((S)-2-((3R,5R,8R,9S,10S,13S,14S,17S)-3-hydroxy-3-(methoxymethyl)-10,13-dimethylhexadecahydro-1H-cyclopenta[a]phenanthren-17-yl)-2-methoxypropyl)-1H-pyrazole-4-carbonitrile], the IC50 fell in the range of 100 to 1000 nM.

As for `CO[C@@H]1C[C@H]2[C@H](CC[C@@H]3[C@@H]2CC[C@@]2(C)[C@H]3CC[C@@H]2[C@@](C)(O)Cn2cc(C#N)cn2)C[C@]1(C)O` [Compound 61, 1-((R)-2-hydroxy-2-((2R,3S,5R,8R,9R,10S,13S,14S,17S)-3-hydroxy-2-methoxy-3,13-dimethylhexadecahydro-1H-cyclopenta[a]phenanthren-17-yl)propyl)-1H-pyrazole-4-carbonitrile], the concentration for half-maximal inhibition (IC50) fell in the range of 100 to 1000 nM.

In the case of `C[C@@]1(O)CC[C@H]2[C@H](CC[C@@H]3[C@@H]2CC[C@@]2(C)[C@H]3CC[C@@H]2[C@](C)(C#N)Cn2cc(C#N)cn2)C1` [Compound 57, 1-((S)-2-cyano-2-((3R,5R,8R,9R,10S,13S,14S,17S)-3-hydroxy-3,13-dimethylhexadecahydro-1H-cyclopenta[a]phenanthren-17-yl)propyl)-1H-pyrazole-4-carbonitrile], the IC50 was below 100 nM.

Turning to `C[C@@H]1C[C@H]2[C@H](CC[C@@H]3[C@@H]2CC[C@@]2(C)[C@H]3CC[C@@H]2[C@@](C)(O)Cn2cc(C#N)cn2)C[C@]1(C)O` [Compound 53, 1-((R)-2-hydroxy-2-((2R,3S,5R,8R,9R,10S,13S,14S,17S)-3-hydroxy-2,3,13-trimethylhexadecahydro-1H-cyclopenta[a]phenanthren-17-yl)propyl)-1H-pyrazole-4-carbonitrile], the IC50 is 100 to 1000 nM. As to `CC[C@]12CC[C@@](C)(O)C[C@H]1CC[C@H]1[C@@H]3CC[C@H]([C@@](C)(O)Cn4cc(C#N)cn4)[C@@]3(C)CC[C@@H]12` [Compound 4, 1-((R)-2-((3R,5R,8S,9S,10S,13S,14S,17S)-10-ethyl-3-hydroxy-3,13-dimethylhexadecahydro-1H-cyclopenta[a]phenanthren-17-yl)-2-hydroxypropyl)-1H-pyrazole-4-carbonitrile], the IC50 is below 100 nM. Turning to `CCC[C@@]1(O)CC[C@@]2(CC)[C@H](CC[C@H]3[C@@H]4CC[C@H]([C@@](C)(O)Cn5cc(C#N)cn5)[C@@]4(C)CC[C@@H]32)C1` [Compound 45, 1-((R)-2-((3R,5R,8S,9S,10S,13S,14S,17S)-10-ethyl-3-hydroxy-13-methyl-3-propylhexadecahydro-1H-cyclopenta[a]phenanthren-17-yl)-2-hydroxypropyl)-1H-pyrazole-4-carbonitrile], the IC50 is 100 to 1000 nM. In the case of `CC[C@@]1(O)CC[C@H]2[C@@H](CC[C@@H]3[C@@H]2CC[C@@]2(C)[C@H]3CC[C@@H]2[C@](C)(O)Cn2cc(C#N)cn2)C1` [Compound 13, 1-((S)-2-((3R,5S,8R,9R,10S,13S,14S,17S)-3-ethyl-3-hydroxy-13-methylhexadecahydro-1H-cyclopenta[a]phenanthren-17-yl)-2-hydroxypropyl)-1H-pyrazole-4-carbonitrile] it was 100 to 1000 nM; in that of `CCC[C@@]1(O)CC[C@H]2[C@@H](CC[C@@H]3[C@@H]2CC[C@@]2(C)[C@H]3CC[C@@H]2[C@](C)(O)Cn2cc(C#N)cn2)C1` [Compound 9, 1-((S)-2-hydroxy-2-((3R,5S,8R,9R,10S,13S,14S,17S)-3-hydroxy-13-methyl-3-propylhexadecahydro-1H-cyclopenta[a]phenanthren-17-yl)propyl)-1H-pyrazole-4-carbonitrile], 100 to 1000 nM; in that of `CC[C@@]1(O)CC[C@H]2[C@@H](CC[C@@H]3[C@@H]2CC[C@@]2(C)[C@H]3CC[C@@H]2[C@@](C)(O)Cn2cc(C#N)cn2)C1` [Compound 14, 1-((R)-2-((3R,5S,8R,9R,10S,13S,14S,17S)-3-ethyl-3-hydroxy-13-methylhexadecahydro-1H-cyclopenta[a]phenanthren-17-yl)-2-hydroxypropyl)-1H-pyrazole-4-carbonitrile], at least 1000 nM. In the case of `CCC[C@@]1(O)CC[C@@]2(C)[C@@H](CC[C@@H]3[C@@H]2CC[C@@]2(C)[C@H]3CC[C@@H]2[C@](C)(O)Cn2cc(C#N)cn2)C1` [Compound 17, 1-((S)-2-hydroxy-2-((3R,5S,8R,9S,10S,13S,14S,17S)-3-hydroxy-10,13-dimethyl-3-propylhexadecahydro-1H-cyclopenta[a]phenanthren-17-yl)propyl)-1H-pyrazole-4-carbonitrile] it was 100 to 1000 nM. Turning to `CCOC[C@@]1(O)CC[C@@]2(C)[C@H](CC[C@@H]3[C@@H]2CC[C@@]2(C)[C@H]3CC[C@@H]2[C@@](C)(O)Cn2cc(C#N)cn2)C1` [Compound 25, 1-((R)-2-((3R,5R,8R,9S,10S,13S,14S,17S)-3-(ethoxymethyl)-3-hydroxy-10,13-dimethylhexadecahydro-1H-cyclopenta[a]phenanthren-17-yl)-2-hydroxypropyl)-1H-pyrazole-4-carbonitrile], the IC50 lay within 100 to 1000 nM. In the case of `CCOC[C@@]1(O)CC[C@H]2[C@H](CC[C@@H]3[C@@H]2CC[C@@]2(C)[C@H]3CC[C@@H]2[C@@](C)(O)Cn2cc(C#N)cn2)C1` [Compound 16, 1-((R)-2-((3R,5R,8R,9R,10S,13S,14S,17S)-3-(ethoxymethyl)-3-hydroxy-13-methylhexadecahydro-1H-cyclopenta[a]phenanthren-17-yl)-2-hydroxypropyl)-1H-pyrazole-4-carbonitrile], the IC50 is below 100 nM. Regarding `COC[C@@]1(O)CC[C@H]2[C@H](CC[C@@H]3[C@@H]2CC[C@@]2(C)[C@H]3CC[C@@H]2[C@](C)(O)Cn2cc(C#N)cn2)C1` [Compound 29, 1-((S)-2-hydroxy-2-((3R,5R,8R,9R,10S,13S,14S,17S)-3-hydroxy-3-(methoxymethyl)-13-methylhexadecahydro-1H-cyclopenta[a]phenanthren-17-yl)propyl)-1H-pyrazole-4-carbonitrile], the IC50 is below 100 nM. As for `C[C@@H]1C[C@H]([C@](C)(O)Cn2cc(C#N)cn2)[C@@]2(C)CC[C@H]3[C@@H](CC[C@@H]4C[C@](C)(O)CC[C@@H]43)[C@H]12` [Compound 48, 1-((S)-2-hydroxy-2-((3R,5R,8R,9R,10S,13S,14S,15R,17S)-3-hydroxy-3,13,15-trimethylhexadecahydro-1H-cyclopenta[a]phenanthren-17-yl)propyl)-1H-pyrazole-4-carbonitrile], the IC50 was below 100 nM. Turning to `C[C@@]1(O)CC[C@H]2[C@H](CC[C@@H]3[C@@H]2CC[C@]2(C)[C@@H](C(F)(F)Cn4cc(C#N)cn4)CC[C@@H]32)C1` [Compound 21, 1-(2,2-difluoro-2-((3R,5R,8R,9R,10S,13S,14S,17S)-3-hydroxy-3,13-dimethylhexadecahydro-1H-cyclopenta[a]phenanthren-17-yl)ethyl)-1H-pyrazole-4-carbonitrile], the IC50 is below 100 nM. Take `CC[C@]12CC[C@](O)(COC)C[C@H]1CC[C@H]1[C@@H]3CC[C@H]([C@@](C)(O)Cn4cc(C#N)cn4)[C@@]3(C)CC[C@@H]12` [Compound 43, 1-((R)-2-((3R,5R,8S,9S,10S,13S,14S,17S)-10-ethyl-3-hydroxy-3-(methoxymethyl)-13-methylhexadecahydro-1H-cyclopenta[a]phenanthren-17-yl)-2-hydroxypropyl)-1H-pyrazole-4-carbonitrile]: the IC50 was below 100 nM.

The term IC50 denotes the point on the concentration scale where inhibition reaches its midpoint.
